In ChEMBL document CHEMBL3390836, “Mannich- and LedererManasse-based analogues of the natural product S-(+)-curcuphenol as cancer proliferation and migration inhibitors” (Medchemcomm, 2012):
pIC50: −log10 of the molar value.

What was measured:
NCI-H226 = test: Cytotoxicity against human NCI-H226 cells assessed as cell growth at 10 uM after 48 hrs by SRB assay relative to control; assay type: functional; conditions: NCI-H226, 48 h, read-out: Activity
ACHN = test: Cytotoxicity against human ACHN cells assessed as cell growth at 10 uM after 48 hrs by SRB assay relative to control; assay type: functional; conditions: read-out: Activity
SF-539 = test: Cytotoxicity against human SF539 cells assessed as cell growth at 10 uM after 48 hrs by SRB assay relative to control; assay type: functional; conditions: SF-539, 48 h, read-out: Activity
K562 = test: Cytotoxicity against human K562 cells assessed as cell growth at 10 uM after 48 hrs by SRB assay relative to control; assay type: functional; conditions: K562, 48 h, read-out: Activity
T47D = test: Cytotoxicity against human T47D cells assessed as cell growth at 10 uM after 48 hrs by SRB assay relative to control; assay type: functional; conditions: read-out: Activity
TK-10 = test: Cytotoxicity against human TK10 cells assessed as cell growth at 10 uM after 48 hrs by SRB assay relative to control; assay type: functional; conditions: TK-10, 48 h, read-out: Activity
SK-MEL-5 = test: Cytotoxicity against human SK-MEL-5 cells assessed as cell growth at 10 uM after 48 hrs by SRB assay relative to control; assay type: functional; conditions: SK-MEL-5, 48 h, read-out: Activity
786-0 = test: Cytotoxicity against human 786-0 cells assessed as cell growth at 10 uM after 48 hrs by SRB assay relative to control; assay type: functional; conditions: 786-0, 48 h, read-out: Activity
[1] = Cytotoxicity against human SKOV3 cells assessed as cell growth at 10 uM after 48 hrs by SRB assay relative to control; assay type: functional; conditions: SK-OV-3, 48 h, read-out: Activity
[2] = Cytotoxicity against human PC3 cells assessed as cell growth at 10 uM after 48 hrs by SRB assay relative to control; assay type: functional; conditions: PC-3, 48 h, read-out: Activity
HCC 2998 = test: Cytotoxicity against human HCC2998 cells assessed as cell growth at 10 uM after 48 hrs by SRB assay relative to control; assay type: functional; conditions: HCC 2998, 48 h, read-out: Activity
NCI-H322M = test: Cytotoxicity against human NCI-H322M cells assessed as cell growth at 10 uM after 48 hrs by SRB assay relative to control; assay type: functional; conditions: read-out: Activity
M14 = test: Cytotoxicity against human M14 cells assessed as cell growth at 10 uM after 48 hrs by SRB assay relative to control; assay type: functional; conditions: M14, 48 h, read-out: Activity
HOP-62 = test: Cytotoxicity against human HOP62 cells assessed as cell growth at 10 uM after 48 hrs by SRB assay relative to control; assay type: functional; conditions: HOP-62, 48 h, read-out: Activity
IGROV-1 = test: Cytotoxicity against human IGROV1 cells assessed as cell growth at 10 uM after 48 hrs by SRB assay relative to control; assay type: functional; conditions: IGROV-1, 48 h, read-out: Activity
MOLT-4 = test: Cytotoxicity against human MOLT4 cells assessed as cell growth at 10 uM after 48 hrs by SRB assay relative to control; assay type: functional; conditions: MOLT-4, 48 h, read-out: Activity
A498 = test: Cytotoxicity against human A498 cells assessed as cell growth at 10 uM after 48 hrs by SRB assay relative to control; assay type: functional; conditions: A498, 48 h, read-out: Activity
MDA-MB-231 [3] = test: Antimigratory activity against human MDA-MB-231 cells after 24 hrs by wound-healing assay; assay type: functional, cell-based; conditions: MDA-MB-231, 24 h
[4] = Cytotoxicity against human UACC257 cells assessed as cell growth at 10 uM after 48 hrs by SRB assay relative to control; assay type: functional; conditions: UACC-257, 48 h, read-out: Activity
MCF7 = test: Cytotoxicity against human MCF7 cells assessed as cell growth at 10 uM after 48 hrs by SRB assay relative to control; assay type: functional; conditions: MCF7, 48 h, read-out: Activity
[5] = Cytotoxicity against human NCI-ADR-RES cells assessed as cell growth at 10 uM after 48 hrs by SRB assay relative to control; assay type: functional; conditions: read-out: Activity
A549 = test: Cytotoxicity against human A549 cells assessed as cell growth at 10 uM after 48 hrs by SRB assay relative to control; assay type: functional; conditions: A549, 48 h, read-out: Activity
[6] = Cytotoxicity against human OVCAR3 cells assessed as cell growth at 10 uM after 48 hrs by SRB assay relative to control; assay type: functional; conditions: OVCAR-3, 48 h, read-out: Activity
[7] = Cytotoxicity against human OVCAR8 cells assessed as cell growth at 10 uM after 48 hrs by SRB assay relative to control; assay type: functional; conditions: OVCAR-8, 48 h, read-out: Activity
SK-MEL-2 = test: Cytotoxicity against human SK-MEL-2 cells assessed as cell growth at 10 uM after 48 hrs by SRB assay relative to control; assay type: functional; conditions: SK-MEL-2, 48 h, read-out: Activity
U-251 = test: Cytotoxicity against human U251 cells assessed as cell growth at 10 uM after 48 hrs by SRB assay relative to control; assay type: functional; conditions: U-251, 48 h, read-out: Activity
HT-29 = test: Cytotoxicity against human HT-29 cells assessed as cell growth at 10 uM after 48 hrs by SRB assay relative to control; assay type: functional; conditions: HT-29, 48 h, read-out: Activity
MDA-MB-231 [8] = test: Growth inhibition of human MDA-MB-231 cells after 72 hrs by MTT assay; assay type: functional, cell-based; conditions: MDA-MB-231, 72 h
SK-MEL-28 = test: Cytotoxicity against human SK-MEL-28 cells assessed as cell growth at 10 uM after 48 hrs by SRB assay relative to control; assay type: functional; conditions: SK-MEL-28, 48 h, read-out: Activity
SNB-75 = test: Cytotoxicity against human SNB75 cells assessed as cell growth at 10 uM after 48 hrs by SRB assay relative to control; assay type: functional; conditions: SNB-75, 48 h, read-out: Activity
KM12 = test: Cytotoxicity against human KM12 cells assessed as cell growth at 10 uM after 48 hrs by SRB assay relative to control; assay type: functional; conditions: KM12, 48 h, read-out: Activity
MDA-MB-435 = test: Cytotoxicity against human MDA-MB-435 cells assessed as cell growth at 10 uM after 48 hrs by SRB assay relative to control; assay type: functional; conditions: MDA-MB-435, 48 h, read-out: Activity
[9] = Cytotoxicity against human HCT15 cells assessed as cell growth at 10 uM after 48 hrs by SRB assay relative to control; assay type: functional; conditions: HCT-15, 48 h, read-out: Activity
RPMI-8226 = test: Cytotoxicity against human RPMI8226 cells assessed as cell growth at 10 uM after 48 hrs by SRB assay relative to control; assay type: functional; conditions: RPMI-8226, 48 h, read-out: Activity
LOX IMVI = test: Cytotoxicity against human LOXIMVI cells assessed as cell growth at 10 uM after 48 hrs by SRB assay relative to control; assay type: functional; conditions: read-out: Activity
MDA-MB-231 [10] = test: Cytotoxicity against human MDA-MB-231 cells assessed as cell growth at 10 uM after 48 hrs by SRB assay relative to control; assay type: functional; conditions: MDA-MB-231, 48 h, read-out: Activity

## CC(C)=CCC[C@H](C)c1ccc(C)c(CNCCCCC(=O)O)c1O
NCI-H226
  growth at 10 µM: 91.1%
ACHN
  growth at 10 µM: 102%
SF-539
  growth at 10 µM: 111%
K562
  growth at 10 µM: 96.1%
T47D
  growth at 10 µM: 113%
TK-10
  growth at 10 µM: 105%
SK-MEL-5
  growth at 10 µM: 98.4%
786-0
  growth at 10 µM: 100%
[1]
  growth at 10 µM: 105%
[2]
  growth at 10 µM: 98%
HCC 2998
  growth at 10 µM: 101%
NCI-H322M
  growth at 10 µM: 111%
M14
  growth at 10 µM: 113%
HOP-62
  growth at 10 µM: 106%
IGROV-1
  growth at 10 µM: 105%
MOLT-4
  growth at 10 µM: 95.1%
A498
  growth at 10 µM: 92.3%
MDA-MB-231 [3]
  pIC50: < 4.70
[4]
  growth at 10 µM: 101%
MCF7
  growth at 10 µM: 101%
[5]
  growth at 10 µM: 103%
A549
  growth at 10 µM: 95.8%
[6]
  growth at 10 µM: 108%
[7]
  growth at 10 µM: 94.1%
SK-MEL-2
  growth at 10 µM: 104%
U-251
  growth at 10 µM: 98.1%
HT-29
  growth at 10 µM: 101%
MDA-MB-231 [8]
  pIC50: < 4.30
SK-MEL-28
  growth at 10 µM: 109%
SNB-75
  growth at 10 µM: 95.4%
KM12
  growth at 10 µM: 102%
MDA-MB-435
  growth at 10 µM: 96.1%
[9]
  growth at 10 µM: 105%
RPMI-8226
  growth at 10 µM: 95.1%
LOX IMVI
  growth at 10 µM: 95%
MDA-MB-231 [10]
  growth at 10 µM: 97.6%
